Experiment [1] deals with 3T3 L1 fibroblasts differentiated to adipocytes. The experiment is described as follows: Glucose transport activity (14C-2-deoxy-D-glucose uptake). The experiment is classed as cell-based. To be noted: insulin 5.6 nM. The protocol: Glucose Transport Activity
3T3 L1 fibroblasts (ATCC) were grown in Dulbecco's modified Eagie's medium (DMEM) with 10% fetal bovine serum (FBS). The cells were plated at a density of 3×10^4 cells/well in 24-well plates. Two days after confluence was reached, the cells were treated for 3 days with […] isobutylmethylxanthine (IBMX), 1 μM dexamethasone, and 1.7 μM insulin. The cells were then transferred to DMEM with 10% fresh bovine serum with 1.7 μM insulin for 2 more days. The cells were maintained in DMEM with 10% FBS for an additional 4 days. Finally the cells were serum starved overnight in 0.1% bovine serum albumin (BSA) in DMEM prior to exposure to the test compounds.
The following day, the medium was replaced with 150 mM NaCl, 1.7 mM KCl, 0.9 mM CaCl2, K2HPO4 (pH 7.4) to which was added either the experimental compounds, or their vehicle (DMSO). Insulin or its vehicle (0.01% BSA) was diluted in the assay buffer (containing test compound or vehicle, respectively) to a final concentration of 5.6 nM. After incubation for 30 min at 37° C., 0.5 μCi/ml of ^14C-2-deoxy-D-glucose was added, and the incubation was continued for additional 30 min at 37° C. The cells were then washed 3 times with ice-cold PBS/20 mM glucose and lysed in 250 μl of lysis buffer (50 mM HEPES pH 7.6, 1% Triton X-100) for 30 min at room temperature. Radioactivity in the lysate was quantified by scintillation counting.
Once ^14C-2-deoxy-D-glucose is transported into the cell it is not released. Glucose transport is, therefore, proportional to the amount of radioactivity in the lysate. The concentration of compound necessary to produce an increase in glucose transport greater than the sum of the standard deviation of the vehicle control plus the largest standard deviation of a test sample (generally 150% of the vehicle control) was recorded as the EC (effective concentration) The results of the glucose transport activity assay are shown in Table 2,

In experiment [2] the target is T1, β-kinase domain of the human insulin receptor (CKD) (Homo sapiens, UniProt P06213).
T1 construct: The complete β-kinase domain of the human insulin receptor (CKD); made in house
The experiment is described as follows: 32P-cytoplasmic kinase domain (CKD) autophosphorylation assay. The experiment is classed as biochemical. To be noted: 32P incorporated into CKD band, 10 minutes at room temperature, 50 μM ATP; test concentration not given. The procedure:
^32P-cytoplasmic Kinase Domain (CKD) Autophosphorylation Assay
The complete β-kinase domain of the human insulin receptor (CKD) was expressed in, and purified from, baculovirus. CKD (4.0 μg/ml), in a solution of 29 mM HEPES (pH 7.6), 0.05% Triton X-100, 10 mM MgCl2, 2 mM MnCl2 (50 μl final volume), was combined with 50 μM ATP, and 5 μCi ^32P-ATP (3000 Ci/mmol.). A test compound, or the vehicle (DMSO), was added to a final DMSO concentration of 1%. The mixture was incubated for 10 minutes at room temperature. The reaction was terminated by the addition of 10 μl of 200 mM EDTA. A 30 μl volume was removed, mixed with 5 μl of 6× Laemmeli sodium dodecyl sulfate (SDS) treatment buffer, and heated to 95° C. for 5 minutes. A 20 μl aliquot was then run on an SDS-PAGE gel. The radioactivity incorporated into the CKD band is quantified by phosphorimaging of the gel, or scintillation counting of the excised bands.
The potency of a compound for increasing phosphorylation is expressed as a percentage of the vehicle level.

[3] abbreviates: concentration producing increase in glucose transport generally 150% of the vehicle control, read-out: Glucose Transport EC (effective concentration).
[4] abbreviates: Mus musculus, 3T3-L1, concentration producing increase in glucose transport generally 150% of the vehicle control, read-out: Glucose Transport EC (effective concentration).
The mark [5] stands for this setting: Mus musculus, 3T3-L1, no EC recorded, not tested above 3.2 μM, read-out: Glucose Transport EC (effective concentration), cells printed NT.

Where two headings read alike, the source gives them in different places. A value given as a limit tells only on which side of the number the result lay.

T1 sequence (P06213 980-1382 limits assumed): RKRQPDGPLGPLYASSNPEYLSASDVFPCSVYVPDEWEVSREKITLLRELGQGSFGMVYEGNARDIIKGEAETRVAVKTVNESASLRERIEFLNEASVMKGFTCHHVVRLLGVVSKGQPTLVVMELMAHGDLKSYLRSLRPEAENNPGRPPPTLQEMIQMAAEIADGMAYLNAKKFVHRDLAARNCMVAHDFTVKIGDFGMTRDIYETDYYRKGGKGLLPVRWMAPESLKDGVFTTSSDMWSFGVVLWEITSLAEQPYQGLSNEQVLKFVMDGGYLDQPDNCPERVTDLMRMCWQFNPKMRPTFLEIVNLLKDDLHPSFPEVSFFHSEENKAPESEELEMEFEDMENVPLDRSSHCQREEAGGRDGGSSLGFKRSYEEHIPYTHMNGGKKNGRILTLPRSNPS

Consider “3,5-bis[N-(6-sulfonaphthyl)carbamoyl] benzoic acid [Compound 5]”, for which the EC50 in experiment [1] (setting [3]) worked out at 10 µM. Besides, in experiment [2], the “CKD phosphorylation (percentage of the vehicle level)” value worked out at 115.6%.

Take `COC(=O)c1cccc(NC(=O)c2cc(C(=O)Nc3cccc(C(=O)OC)c3)cc(C(=O)Nc3cccc(C(=O)OC)c3)c2)c1` [Compound 18, methyl 3-[(3,5-bis{N-[3-(methoxycarbonyl)phenyl]carbamoyl}phenyl)carbonyl-amino]benzoate]: the EC50 in experiment [1] (setting [4]) is 3.2 µM. In addition, in experiment [2], the “CKD phosphorylation (percentage of the vehicle level)” value worked out at 94.54%.

`O=C(Nc1ccccc1S(=O)(=O)O)c1cc(C(=O)Nc2ccccc2S(=O)(=O)O)cc(C(=O)Nc2ccccc2S(=O)(=O)O)c1` [Compound 8, 2-({3,5-bis[N-(2-sulfophenyl)carbamoyl]phenyl}carbonylamino)benzenesulfonic acid]: the EC50 in experiment [1] (setting [4]) was 3.2 µM. Besides, the “CKD phosphorylation (percentage of the vehicle level)” value in experiment [2] is listed as 113.2%.

As for `O=C(Nc1ccc2ccc(S(=O)(=O)O)cc2c1)c1cc(C(=O)Nc2ccc3ccc(S(=O)(=O)O)cc3c2)cc(C(=O)Nc2ccc3ccc(S(=O)(=O)O)cc3c2)c1` [Compound 13, 7-({3,5-bis[N-(7-sulfo(2-naphthyl))carbamoyl]phenyl}carbonylamino)naphthalene-2-sulfonic acid], in experiment [1] (setting [5]), the EC50 was above 3.2 µM. Moreover, the “CKD phosphorylation (percentage of the vehicle level)” value in experiment [2] is reported as 125.5%.

Turning to `COC(=O)c1ccc(NC(=O)c2cc(C(=O)Nc3ccc(C(=O)OC)cc3)cc(C(=O)Nc3ccc(C(=O)OC)cc3)c2)cc1` [Compound 20, methyl 4-[(3,5-bis{N-[4-(methoxycarbonyl)phenyl]carbamoyl}phenyl)carbonyl-amino]benzoate], the EC50 in experiment [1] (setting [4]) was 3.2 µM. Further, the “CKD phosphorylation (percentage of the vehicle level)” value in experiment [2] is on record as 77.4%.

As for `O=C(Nc1ccc2cc(S(=O)(=O)O)ccc2c1)c1cc(C(=O)Nc2ccc3cc(S(=O)(=O)O)ccc3c2)cc(C(=O)Nc2ccc3cc(S(=O)(=O)O)ccc3c2)c1` [Compound 11, 6-({3,5-bis[N-(6-sulfo(2-naphthyl))carbamoyl]phenyl}carbonylamino)naphthalene-2-sulfonic acid], in experiment [1] (setting [5]), the EC50 was above 3.2 µM. In addition, the “CKD phosphorylation (percentage of the vehicle level)” value in experiment [2] stood at 148.2%.

With `O=C(Nc1cccc2cccc(S(=O)(=O)O)c12)c1cc(C(=O)Nc2cccc3cccc(S(=O)(=O)O)c23)cc(C(=O)Nc2cccc3cccc(S(=O)(=O)O)c23)c1` [Compound 15, 8-({3,5-bis[N-(8-sulfonaphthyl)carbamoyl]phenyl}carbonylamino)naphthalene-sulfonic acid], in experiment [1] (setting [3]), the EC50 came out at 3.2 µM. Also, the “CKD phosphorylation (percentage of the vehicle level)” value in experiment [2] is recorded as 156.0%.

As to `O=C(Nc1ccccc1C(=O)O)c1cc(C(=O)Nc2ccccc2C(=O)O)cc(C(=O)Nc2ccccc2C(=O)O)c1` [Compound 14, 2-({3,5-bis[N-(2-carboxyphenyl)carbamoyl]phenyl}carbonylamino)benzoic acid], the EC50 in experiment [1] (setting [5]) was above 3.2 µM. The “CKD phosphorylation (percentage of the vehicle level)” value in experiment [2] is 105.3%.

For `O=C(Nc1ccc2ccccc2c1S(=O)(=O)O)c1cc(C(=O)Nc2ccc3ccccc3c2S(=O)(=O)O)cc(C(=O)Nc2ccc3ccccc3c2S(=O)(=O)O)c1` [Compound 9, 2-({3,5-bis[N-(1-sulfo(2-naphthyl))carbamoyl]phenyl}carbonylamino)naphthalene-sulfonic acid], the EC50 in experiment [1] (no EC recorded, not tested above 3.2 μM, read-out: Glucose Transport EC (effective concentration), cells printed NT) is above 3.2 µM. In addition, the “CKD phosphorylation (percentage of the vehicle level)” value in experiment [2] is given as 98.8%.

For the compound `O=C(O)c1cc(NC(=O)c2cc(C(=O)Nc3cc(C(=O)O)cc(C(=O)O)c3)cc(C(=O)Nc3cc(C(=O)O)cc(C(=O)O)c3)c2)cc(C(=O)O)c1` [Compound 21, 5-({3,5-bis[N-(3,5-dicarboxyphenyl)carbamoyl]phenyl}carbonylamino)benzene-1,3-dicarboxylic acid], the EC50 in experiment [1] (setting [4]) amounted to 3.2 µM. Besides, the “CKD phosphorylation (percentage of the vehicle level)” value in experiment [2] stood at 97.8%.

On to `O=C(Nc1ccc(S(=O)(=O)O)cc1)c1cc(C(=O)Nc2ccc(S(=O)(=O)O)cc2)cc(C(=O)Nc2ccc(S(=O)(=O)O)cc2)c1` [Compound 3, 4-({3,5-bis[N-(4-sulfophenyl)carbamoyl]phenyl}carbonylamino)benzenesulfonic acid], for which the EC50 in experiment [1] (setting [4]) was 3.2 µM. Besides, the “CKD phosphorylation (percentage of the vehicle level)” value in experiment [2] stood at 98.9%.

Regarding `COC(=O)c1ccc(CNC(=O)c2cc(C(=O)NCc3ccc(C(=O)OC)cc3)cc(C(=O)NCc3ccc(C(=O)OC)cc3)c2)cc1` [Compound 19, methyl 4-({[3,5-bis(N-{[4-(methoxycarbonyl)phenyl]methyl}carbamoyl)phenyl]-carbonylamino}methyl)benzoate], the EC50 in experiment [1] (setting [5]) was above 3.2 µM. Also, in experiment [2], the “CKD phosphorylation (percentage of the vehicle level)” value was 104.0%.

Consider `O=C(Nc1ccc(S(=O)(=O)O)c2ccccc12)c1cc(C(=O)Nc2ccc(S(=O)(=O)O)c3ccccc23)cc(C(=O)Nc2ccc(S(=O)(=O)O)c3ccccc23)c1` [Compound 7, 4-({3,5-bis[N-(4-sulfonaphthyl)carbamoyl]pheny}carbonylamino)naphthalene-sulfonic acid], for which, in experiment [1] (setting [3]), the EC50 stood at 3.2 µM. The “CKD phosphorylation (percentage of the vehicle level)” value in experiment [2] is on record as 114.1%.

Regarding `COC(=O)c1ccccc1NC(=O)c1cc(C(=O)Nc2ccccc2C(=O)OC)cc(C(=O)Nc2ccccc2C(=O)OC)c1` [Compound 23, methyl 2-[(3,5-bis{N-[2-(methoxycarbonyl)phenyl]carbamoyl}phenyl)carbonyl-amino]benzoate], in experiment [1] (setting [4]), the EC50 worked out at 1.6 µM. Moreover, the “CKD phosphorylation (percentage of the vehicle level)” value in experiment [2] amounted to 87.4%.

Take `O=C(Nc1cccc2cc(S(=O)(=O)O)ccc12)c1cc(C(=O)Nc2cccc3cc(S(=O)(=O)O)ccc23)cc(C(=O)Nc2cccc3cc(S(=O)(=O)O)ccc23)c1` [Compound 2, 5-({3,5-bis[N-(6-sulfonaphthyl)carbamoyl]phenyl}carbonylamino)naphthalene-2-sulfonic acid]: the EC50 in experiment [1] (setting [3]) was determined as 3.2 µM. For the same compound, the “CKD phosphorylation (percentage of the vehicle level)” value in experiment [2] was 136.8%.

For `COC(=O)c1cc(NC(=O)c2cc(C(=O)Nc3cc(C(=O)OC)cc(C(=O)OC)c3)cc(C(=O)Nc3cc(C(=O)OC)cc(C(=O)OC)c3)c2)cc(C(=O)OC)c1` [Compound 16, methyl 3-[(3,5-bis{N-[3,5-bis(methoxycarbonyl)phenyl]carbamoyl}phenyl)-carbonylamino]-5-(methoxycarbonyl)benzoate], the EC50 in experiment [1] (setting [4]) was determined as 1.6 µM. Also, the “CKD phosphorylation (percentage of the vehicle level)” value in experiment [2] was determined as 83.7%.

Consider `O=C(Nc1ccc2c(S(=O)(=O)O)cccc2c1)c1cc(C(=O)Nc2ccc3c(S(=O)(=O)O)cccc3c2)cc(C(=O)Nc2ccc3c(S(=O)(=O)O)cccc3c2)c1` [Compound 12, 6-({3,5-bis[N-(5-sulfo(2-naphthyl))carbamoyl]phenyl}carbonylamino)naphthalene-sulfonic acid], for which the EC50 in experiment [1] (setting [3]) was 3.2 µM. For the same compound, in experiment [2], the “CKD phosphorylation (percentage of the vehicle level)” value stood at 136.6%.

With `O=C(Nc1cccc2c(S(=O)(=O)O)cccc12)c1cc(C(=O)Nc2cccc3c(S(=O)(=O)O)cccc23)cc(C(=O)Nc2cccc3c(S(=O)(=O)O)cccc23)c1` [Compound 6, 5-({3,5-bis[N-(5-sulfonaphthyl)carbamoyl]phenyl}carbonylamino)naphthalene-sulfonic acid], in experiment [1] (setting [3]), the EC50 was 3.2 µM. The “CKD phosphorylation (percentage of the vehicle level)” value in experiment [2] is listed as 122.7%.

On to `O=C(O)c1ccc(CNC(=O)c2cc(C(=O)NCc3ccc(C(=O)O)cc3)cc(C(=O)NCc3ccc(C(=O)O)cc3)c2)cc1` [Compound 17, 4-{[(3,5-bis{N-[(4-carboxyphenyl)methyl]carbamoyl}phenyl)carbonylamino]-methyl}benzoic acid], for which the EC50 in experiment [1] (setting [4]) was determined as 3.2 µM. The “CKD phosphorylation (percentage of the vehicle level)” value in experiment [2] turned out to be 90.4%.

Values taken from US6600069B2, “Benzene tricarboxylic acid derivatives as insulin receptor activators” (Telik, Inc., priority 2000, dated 2003).
